In PubChem BioAssay (NCI):
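Dose response: 5 concentrations. Exposure: 48 h. Format: 96-well plates. Endpoint: linear interpolation; highest concentration if not reached. TGI: total growth inhibition.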

What was measured:
Test in all cases: inhibition of tumour cell growth, NCI panel, 48 h
KM12 colon = test system: KM12 colon
HCC-2998 colon = test system: HCC-2998 colon
HS 578T breast = test system: HS 578T breast
CAKI-1 renal = test system: CAKI-1 renal
NCI-H23 lung = test system: NCI-H23 lung
SF-268 CNS = test system: SF-268 CNS
BT-549 breast = test system: BT-549 breast
HT29 colon = test system: HT29 colon
786-0 renal = test system: 786-0 renal
MDA-MB-231 breast = test system: MDA-MB-231 breast
SNB-75 CNS = test system: SNB-75 CNS

SMILES: COC(=O)c1ccc2n1C1CC3CC(CC2C3)C1
- TGI (KM12 colon): > 100 µM
- TGI (HCC-2998 colon): > 100 µM
- TGI (HS 578T breast): > 100 µM
- TGI (CAKI-1 renal): > 100 µM
- TGI (NCI-H23 lung): > 100 µM
- TGI (SF-268 CNS): > 100 µM
- TGI (BT-549 breast): > 100 µM
- TGI (HT29 colon): > 100 µM
- TGI (786-0 renal): > 100 µM
- TGI (MDA-MB-231 breast): > 100 µM
- TGI (SNB-75 CNS): > 100 µM

SMILES: CC(=O)Oc1ccn2nc(C)c(Br)c2c1Br
- TGI (KM12 colon): > 100 µM
- TGI (HCC-2998 colon): 49.9 µM
- TGI (HS 578T breast): > 100 µM
- TGI (CAKI-1 renal): 21.7 µM
- TGI (NCI-H23 lung): 34.8 µM
- TGI (SF-268 CNS): > 90.1 µM
- TGI (BT-549 breast): 60.2 µM
- TGI (HT29 colon): 44.6 µM
- TGI (786-0 renal): > 100 µM
- TGI (MDA-MB-231 breast): 54.3 µM
- TGI (SNB-75 CNS): > 56.2 µM

SMILES: O=C(O)c1c(CC(Cc2ccc3c(c2)CCCC3)C(=O)O)ccc2c1CCCC2 (stereo unspecified)
- TGI (KM12 colon): > 100 µM
- TGI (HCC-2998 colon): > 100 µM
- TGI (HS 578T breast): > 100 µM
- TGI (CAKI-1 renal): > 100 µM
- TGI (NCI-H23 lung): > 100 µM
- TGI (SF-268 CNS): > 100 µM
- TGI (BT-549 breast): > 100 µM
- TGI (HT29 colon): > 100 µM
- TGI (786-0 renal): > 100 µM
- TGI (MDA-MB-231 breast): > 100 µM
- TGI (SNB-75 CNS): > 100 µM

SMILES: CC1=C/C(=N/N2C(=O)/C(=C/c3ccc(Cl)cc3)N=C2c2ccccc2)CC(C)(C)C1
- TGI (KM12 colon): > 100 µM
- TGI (HCC-2998 colon): > 100 µM
- TGI (HS 578T breast): > 100 µM
- TGI (CAKI-1 renal): > 100 µM
- TGI (NCI-H23 lung): > 100 µM
- TGI (SF-268 CNS): > 100 µM
- TGI (BT-549 breast): > 100 µM
- TGI (HT29 colon): > 100 µM
- TGI (786-0 renal): > 100 µM
- TGI (MDA-MB-231 breast): > 100 µM
- TGI (SNB-75 CNS): 93.6 µM

SMILES: CCCn1cnc2c(NN=O)ncnc21
- TGI (KM12 colon): > 100 µM
- TGI (HCC-2998 colon): > 100 µM
- TGI (HS 578T breast): > 100 µM
- TGI (CAKI-1 renal): > 100 µM
- TGI (NCI-H23 lung): > 100 µM
- TGI (SF-268 CNS): > 100 µM
- TGI (BT-549 breast): > 100 µM
- TGI (HT29 colon): > 100 µM
- TGI (786-0 renal): > 100 µM
- TGI (MDA-MB-231 breast): > 100 µM
- TGI (SNB-75 CNS): > 100 µM

SMILES: Oc1ccc2c(c1)OCC(O)(c1ccccc1O)C2 (stereo unspecified)
- TGI (KM12 colon): > 100 µM
- TGI (HCC-2998 colon): > 100 µM
- TGI (HS 578T breast): > 100 µM
- TGI (CAKI-1 renal): > 100 µM
- TGI (NCI-H23 lung): > 100 µM
- TGI (SF-268 CNS): > 100 µM
- TGI (BT-549 breast): > 100 µM
- TGI (HT29 colon): > 100 µM
- TGI (786-0 renal): > 100 µM
- TGI (MDA-MB-231 breast): > 100 µM
- TGI (SNB-75 CNS): > 100 µM

SMILES: CCCCCCCCCCCCCCCCCCNc1ccn(C2OC(COP(=O)(O)O)C(O)C2O)c(=O)n1 (stereo unspecified)
- TGI (KM12 colon): > 100 µM
- TGI (HCC-2998 colon): > 100 µM
- TGI (HS 578T breast): > 100 µM
- TGI (CAKI-1 renal): > 100 µM
- TGI (NCI-H23 lung): > 100 µM
- TGI (SF-268 CNS): > 100 µM
- TGI (BT-549 breast): > 100 µM
- TGI (HT29 colon): > 100 µM
- TGI (786-0 renal): > 100 µM
- TGI (MDA-MB-231 breast): > 100 µM
- TGI (SNB-75 CNS): > 100 µM

SMILES: Cn1c(-c2csc(-c3ccc(Cl)cc3)n2)n[nH]c1=S
- TGI (KM12 colon): > 100 µM
- TGI (HCC-2998 colon): > 100 µM
- TGI (HS 578T breast): 83.7 µM
- TGI (CAKI-1 renal): 56.4 µM
- TGI (NCI-H23 lung): 75.5 µM
- TGI (SF-268 CNS): 81.4 µM
- TGI (BT-549 breast): 55.8 µM
- TGI (HT29 colon): > 100 µM
- TGI (786-0 renal): 32.2 µM
- TGI (MDA-MB-231 breast): 69.4 µM
- TGI (SNB-75 CNS): 39.8 µM

SMILES: c1ccc2c(c1)CCc1c-2n(CCN2CCCCC2)c2ccccc12
- TGI (KM12 colon): 32 µM
- TGI (HCC-2998 colon): 26.4 µM
- TGI (HS 578T breast): 35.4 µM
- TGI (CAKI-1 renal): 52.3 µM
- TGI (NCI-H23 lung): 32.1 µM
- TGI (SF-268 CNS): 49.5 µM
- TGI (BT-549 breast): 42.1 µM
- TGI (HT29 colon): 22.8 µM
- TGI (786-0 renal): 33 µM
- TGI (MDA-MB-231 breast): 28 µM
- TGI (SNB-75 CNS): 49.1 µM

SMILES: COC(=O)C1OC(O[C@H]2CC[C@]3(C)[C@H]4CC=C5[C@@H]6CC(C)(C)CC[C@]6(C(=O)OC)[C@H](O)C[C@@]5(C)[C@]4(C)CC[C@H]3C2(C)C)C(O)C(O)C1O (stereo partly specified)
- TGI (KM12 colon): 4.21 µM
- TGI (HCC-2998 colon): 8.64 µM
- TGI (HS 578T breast): 34.1 µM
- TGI (CAKI-1 renal): 27.2 µM
- TGI (NCI-H23 lung): 18.9 µM
- TGI (SF-268 CNS): 29.5 µM
- TGI (BT-549 breast): 30.4 µM
- TGI (HT29 colon): 13.5 µM
- TGI (786-0 renal): 20.9 µM
- TGI (MDA-MB-231 breast): 21.8 µM
- TGI (SNB-75 CNS): 28.1 µM

SMILES: O=C1Oc2ccccc2C(=O)/C1=C/N1C(=O)/C(=C/c2ccc([N+](=O)[O-])cc2)SC1=S
- TGI (KM12 colon): 52.3 µM
- TGI (HCC-2998 colon): 42.2 µM
- TGI (HS 578T breast): 34.3 µM
- TGI (CAKI-1 renal): 51.3 µM
- TGI (NCI-H23 lung): 55 µM
- TGI (SF-268 CNS): 75.4 µM
- TGI (BT-549 breast): 31.2 µM
- TGI (HT29 colon): > 100 µM
- TGI (786-0 renal): > 100 µM
- TGI (MDA-MB-231 breast): 57.2 µM
- TGI (SNB-75 CNS): 54.3 µM

SMILES: Oc1cc(Cl)cc2cc(Br)cnc12
- TGI (KM12 colon): > 100 µM
- TGI (HCC-2998 colon): > 73.9 µM
- TGI (HS 578T breast): > 100 µM
- TGI (CAKI-1 renal): > 27.3 µM
- TGI (NCI-H23 lung): > 100 µM
- TGI (SF-268 CNS): > 48.1 µM
- TGI (BT-549 breast): > 100 µM
- TGI (HT29 colon): > 100 µM
- TGI (786-0 renal): > 100 µM
- TGI (MDA-MB-231 breast): > 100 µM
- TGI (SNB-75 CNS): > 100 µM

SMILES: COC(=O)C1=NN2c3ccccc3C(=O)OCCC2C1 (stereo unspecified)
- TGI (KM12 colon): > 100 µM
- TGI (HCC-2998 colon): > 100 µM
- TGI (HS 578T breast): > 100 µM
- TGI (CAKI-1 renal): > 100 µM
- TGI (NCI-H23 lung): > 100 µM
- TGI (SF-268 CNS): > 100 µM
- TGI (BT-549 breast): > 100 µM
- TGI (HT29 colon): > 100 µM
- TGI (786-0 renal): > 100 µM
- TGI (MDA-MB-231 breast): > 100 µM
- TGI (SNB-75 CNS): > 100 µM

SMILES: C#CC(O)/C=C/CCCCCCC#CC/C=C\CC#CCCCCCC/C=C/C(O)C#C (stereo unspecified)
- TGI (KM12 colon): 5.29 µM
- TGI (HCC-2998 colon): 3.39 µM
- TGI (HS 578T breast): 15 µM
- TGI (CAKI-1 renal): 5.98 µM
- TGI (NCI-H23 lung): 3.53 µM
- TGI (SF-268 CNS): 10.8 µM
- TGI (BT-549 breast): 9.61 µM
- TGI (HT29 colon): 6.86 µM
- TGI (786-0 renal): 5.23 µM
- TGI (MDA-MB-231 breast): 8.9 µM
- TGI (SNB-75 CNS): 20.9 µM

SMILES: COc1nn(Cc2ccccc2F)c2ccc([N+](=O)[O-])cc12
- TGI (KM12 colon): > 100 µM
- TGI (HCC-2998 colon): > 100 µM
- TGI (HS 578T breast): > 100 µM
- TGI (CAKI-1 renal): > 100 µM
- TGI (NCI-H23 lung): > 100 µM
- TGI (SF-268 CNS): > 100 µM
- TGI (BT-549 breast): > 100 µM
- TGI (HT29 colon): > 100 µM
- TGI (786-0 renal): > 100 µM
- TGI (MDA-MB-231 breast): > 100 µM
- TGI (SNB-75 CNS): > 100 µM

SMILES: Clc1ccc(OCc2nnc3sc(-c4ccc(-c5ccc(Cl)cc5Cl)o4)nn23)c(Cl)c1
- TGI (KM12 colon): > 100 µM
- TGI (HCC-2998 colon): 36.6 µM
- TGI (HS 578T breast): 54.5 µM
- TGI (CAKI-1 renal): 86.2 µM
- TGI (NCI-H23 lung): 54 µM
- TGI (SF-268 CNS): 32.5 µM
- TGI (BT-549 breast): 50.6 µM
- TGI (HT29 colon): 51.1 µM
- TGI (786-0 renal): 26.1 µM
- TGI (MDA-MB-231 breast): 33.3 µM
- TGI (SNB-75 CNS): 34.1 µM
